Assays:
[1] = molecular target: T1, TEM-1 (Escherichia coli, UniProt P62593); experiment: β-lactamase inhibitory activity, determination of IC50 (nitrocefin hydrolysis); type: biochemical
T1 construct: made in house; host or cells: E. coli

[2] = molecular target: T2, SHV-1 (Klebsiella pneumoniae, UniProt P0AD64); experiment: as above; type: biochemical
T2 construct: made in house; host or cells: E. coli

[3] = molecular target: T3, CTX-M-15 (Escherichia coli, UniProt Q9EXV5); experiment: as above; type: biochemical; conditions: class (A); nitrocefin 200 μM, 30 min pre-incubation; read-out: IC50 β-lactamase CTX-M-15
T3 construct: made in house; host or cells: E. coli

[4] = molecular target: T4, KPC-2 (Klebsiella pneumoniae, UniProt Q9F663); experiment: as above; type: biochemical; conditions: class (A); nitrocefin 200 μM, 30 min pre-incubation; read-out: IC50 β-lactamase KPC-2
T4 construct: made in house; host or cells: E. coli

[5] = molecular target: T5, OXA-1 (Escherichia coli, UniProt P13661); experiment: as above; type: biochemical; conditions: class (D); nitrocefin 200 μM, 30 min pre-incubation; read-out: IC50 β-lactamase OXA-1
T5 construct: made in house; host or cells: E. coli

[6] = molecular target: T6, OXA-11 (Pseudomonas aeruginosa, UniProt Q06778); experiment: as above; type: biochemical
T6 construct: made in house; host or cells: E. coli

[7] = molecular target: T7, OXA-15 (Pseudomonas aeruginosa, UniProt Q51574); experiment: biochemical
T7 construct: made in house; host or cells: E. coli

[8] = molecular target: T8, OXA-48 (Klebsiella pneumoniae, UniProt Q6XEC0); experiment: β-lactamase inhibitory activity, determination of IC50 (nitrocefin hydrolysis); type: biochemical; conditions: class (D); nitrocefin 200 μM, 30 min pre-incubation; read-out: IC50 β-lactamase OXA-48
T8 construct: made in house; host or cells: E. coli

[9] = test system: E. cloacae P99 (AmpC); experiment: MIC of compounds alone, broth microdilution; type: cell-based; conditions: Enterobacter cloacae; strain P99 (E. cloacae); read-out: MIC compounds of the invention alone
Experimental: (§1) Method 2: MIC of Compounds and Synergy with Ceftazidime Against Bacterial Isolates (Table 2 and 3)
(§2) Compounds of the present invention were assessed against genotyped bacterial strains alone or in combination with the β-lactam ceftazidime (CAZ). In the assays, MICs of said compounds, or of ceftazidime at fixed concentrations of said compounds were determined by the broth microdilution method according to the Clinical Laboratory Standards Institute (CLSI-M7-A7). Briefly, compounds alone according to the invention were prepared in DMSO and spotted (2 μL each) on sterile polystyrene plates (Corning, 3788). Compounds and ceftazidime dilutions were prepared in DMSO and spotted (1 μL each) on sterile polystyrene plates (Corning, 3788). Log phase bacterial suspensions were adjusted to a final density of 5×10^5 cfu/mL in cation-adjusted Mueller-Hinton broth (Becton-Dickinson) and added to each well (98 μL). Microplates were incubated for 16-20 h at 35° C. in ambient air. The MIC of the compounds was defined as the lowest concentration of said compounds that prevented bacterial growth as read by visual inspection. The MIC of ceftazidime at each compound concentration was defined as the lowest concentration of ceftazidime that prevented bacterial growth as read by visual inspection.

[10] = test system: E. coli 131119 (TEM-1, OXA-48); experiment: MIC of compounds alone, broth microdilution; type: cell-based; conditions: Escherichia coli; strain 131119 (E. coli); read-out: MIC compounds of the invention alone
Experimental: as §1, §2

[11] = test system: E. coli 190317 (TEM-1, SHV-12, CTX-M-15, OXA-1); experiment: MIC of compounds alone, broth microdilution; type: cell-based; conditions: Escherichia coli, read-out: MIC compounds of the invention alone
Experimental: as §1, §2

[12] = test system: E. coli RGN238 (OXA-1); experiment: MIC of compounds alone, broth microdilution; type: cell-based; conditions: Escherichia coli; strain RGN238 (E. coli); read-out: MIC compounds of the invention alone
Experimental: as §1, §2

[13] = test system: K. pneumoniae 6299 (TEM-1, SHV-11, OXA-163); experiment: MIC of compounds alone, broth microdilution; type: cell-based; conditions: Klebsiella pneumoniae; strain 6299 (K. pneumoniae); read-out: MIC compounds of the invention alone
Experimental: as §1, §2

[14] = test system: K. pneumoniae BAA-1898 (TEM-1, SHV-11, SHV-12, KPC-2); experiment: MIC of compounds alone, broth microdilution; type: cell-based; conditions: Klebsiella pneumoniae, BAA1898; strain BAA-1898 (K. pneumoniae); read-out: MIC compounds of the invention alone
Experimental: as §1, §2

[15] = test system: P. aeruginosa CIP107051 (TEM-24); experiment: MIC of compounds alone, broth microdilution; type: cell-based; conditions: Pseudomonas aeruginosa; strain CIP107051 (P. aeruginosa); read-out: MIC compounds of the invention alone
Experimental: as §1, §2

[16] = molecular target: AmpC (P99) (Enterobacter cloacae, UniProt P05364); experiment: β-lactamase inhibitory activity, determination of IC50 (nitrocefin hydrolysis)
[17] = molecular target: AmpC P. aeruginosa (Pseudomonas aeruginosa, UniProt P24735); experiment: as above
AmpC P. aeruginosa, sequence (P24735 27-397): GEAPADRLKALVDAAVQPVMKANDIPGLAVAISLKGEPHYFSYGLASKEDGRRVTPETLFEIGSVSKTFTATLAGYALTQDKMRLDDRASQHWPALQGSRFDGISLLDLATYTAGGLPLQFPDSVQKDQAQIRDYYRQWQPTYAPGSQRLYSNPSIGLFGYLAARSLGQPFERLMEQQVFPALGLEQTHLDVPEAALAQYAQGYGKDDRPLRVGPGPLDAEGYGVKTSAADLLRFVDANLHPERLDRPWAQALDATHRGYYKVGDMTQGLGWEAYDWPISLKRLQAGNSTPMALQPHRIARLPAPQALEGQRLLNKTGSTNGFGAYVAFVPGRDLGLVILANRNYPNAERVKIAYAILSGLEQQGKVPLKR

T6 sequence (Q06778 21-266): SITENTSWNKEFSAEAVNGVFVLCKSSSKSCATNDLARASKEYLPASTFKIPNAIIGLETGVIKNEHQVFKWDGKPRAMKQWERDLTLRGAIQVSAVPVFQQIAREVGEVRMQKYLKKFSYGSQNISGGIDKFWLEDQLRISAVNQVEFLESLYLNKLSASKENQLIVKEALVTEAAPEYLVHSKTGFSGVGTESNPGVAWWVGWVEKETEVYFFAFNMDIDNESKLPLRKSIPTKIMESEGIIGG
T3 sequence (Q9EXV5 entry or part of it): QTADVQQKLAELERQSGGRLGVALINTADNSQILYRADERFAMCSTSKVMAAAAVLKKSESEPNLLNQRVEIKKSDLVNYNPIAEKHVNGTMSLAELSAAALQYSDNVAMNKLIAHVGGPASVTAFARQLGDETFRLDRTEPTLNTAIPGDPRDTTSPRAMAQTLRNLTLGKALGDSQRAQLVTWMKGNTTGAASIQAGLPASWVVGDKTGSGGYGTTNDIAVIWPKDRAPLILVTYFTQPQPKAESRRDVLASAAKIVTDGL
T4 sequence (Q9F663 25-293 limits assumed): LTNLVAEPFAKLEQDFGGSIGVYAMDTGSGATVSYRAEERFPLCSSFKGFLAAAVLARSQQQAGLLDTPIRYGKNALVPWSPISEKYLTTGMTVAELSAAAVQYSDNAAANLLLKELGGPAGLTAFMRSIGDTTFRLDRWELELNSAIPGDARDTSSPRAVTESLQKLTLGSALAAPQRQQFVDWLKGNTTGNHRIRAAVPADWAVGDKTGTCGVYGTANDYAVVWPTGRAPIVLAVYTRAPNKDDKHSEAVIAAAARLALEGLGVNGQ
T7 sequence (Q51574 22-275): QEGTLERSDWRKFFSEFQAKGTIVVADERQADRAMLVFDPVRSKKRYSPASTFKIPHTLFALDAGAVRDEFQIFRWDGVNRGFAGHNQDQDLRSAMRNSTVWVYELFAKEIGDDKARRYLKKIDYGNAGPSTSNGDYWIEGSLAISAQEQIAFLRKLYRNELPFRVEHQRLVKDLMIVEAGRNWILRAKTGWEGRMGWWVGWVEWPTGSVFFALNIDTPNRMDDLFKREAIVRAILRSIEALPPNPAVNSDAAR
AmpC (P99), sequence (P05364 21-381): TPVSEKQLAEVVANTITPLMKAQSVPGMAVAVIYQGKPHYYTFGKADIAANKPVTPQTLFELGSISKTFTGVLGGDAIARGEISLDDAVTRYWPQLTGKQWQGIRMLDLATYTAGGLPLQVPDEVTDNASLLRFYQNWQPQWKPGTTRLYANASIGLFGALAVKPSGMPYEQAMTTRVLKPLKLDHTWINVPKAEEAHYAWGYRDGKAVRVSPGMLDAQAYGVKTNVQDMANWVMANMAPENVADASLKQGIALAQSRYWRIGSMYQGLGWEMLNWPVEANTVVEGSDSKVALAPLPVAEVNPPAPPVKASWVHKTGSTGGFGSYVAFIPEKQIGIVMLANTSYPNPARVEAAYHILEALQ
T5 sequence (P13661 26-276): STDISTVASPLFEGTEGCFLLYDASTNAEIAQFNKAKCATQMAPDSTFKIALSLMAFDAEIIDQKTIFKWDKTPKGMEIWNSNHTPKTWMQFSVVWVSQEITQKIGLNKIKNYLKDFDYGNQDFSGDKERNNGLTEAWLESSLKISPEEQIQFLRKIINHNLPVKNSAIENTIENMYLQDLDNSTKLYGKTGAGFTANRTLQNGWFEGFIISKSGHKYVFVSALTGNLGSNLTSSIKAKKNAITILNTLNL
T8 sequence (Q6XEC0 23-265 limits assumed): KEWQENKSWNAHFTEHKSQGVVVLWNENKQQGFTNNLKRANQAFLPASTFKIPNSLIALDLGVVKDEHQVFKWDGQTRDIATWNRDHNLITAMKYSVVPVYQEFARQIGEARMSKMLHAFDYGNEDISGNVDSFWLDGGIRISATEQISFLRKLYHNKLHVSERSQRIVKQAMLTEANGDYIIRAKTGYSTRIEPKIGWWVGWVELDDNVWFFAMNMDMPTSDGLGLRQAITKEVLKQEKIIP
T1 sequence (P62593 24-286 limits assumed): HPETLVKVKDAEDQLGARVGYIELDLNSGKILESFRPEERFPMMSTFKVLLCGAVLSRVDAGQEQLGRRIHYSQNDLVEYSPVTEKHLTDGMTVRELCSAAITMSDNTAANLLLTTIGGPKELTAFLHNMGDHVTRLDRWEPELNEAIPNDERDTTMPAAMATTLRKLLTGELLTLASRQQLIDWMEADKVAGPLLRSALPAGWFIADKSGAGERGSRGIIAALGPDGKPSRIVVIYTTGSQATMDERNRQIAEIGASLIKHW
T2 sequence (P0AD64 22-286): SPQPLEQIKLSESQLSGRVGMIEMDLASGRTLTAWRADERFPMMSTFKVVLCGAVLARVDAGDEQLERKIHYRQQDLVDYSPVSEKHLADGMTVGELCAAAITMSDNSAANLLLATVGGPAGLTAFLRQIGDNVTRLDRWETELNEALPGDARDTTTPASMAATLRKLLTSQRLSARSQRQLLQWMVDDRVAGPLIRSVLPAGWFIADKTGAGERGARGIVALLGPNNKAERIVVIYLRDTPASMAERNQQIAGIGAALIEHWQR

Compound | IC50 [1] | IC50 [2] | IC50 [3] | IC50 [4] | IC50 [5] | IC50 [6] | IC50 [7] | IC50 [8] | MIC [9] | MIC [10] | MIC [11] | MIC [12] | MIC [13] | MIC [14] | MIC [15] | IC50 [16] | IC50 [17]
O=C1N2CC=C(c3ccncc3)C(C2)N1OS(=O)(=O)[O-].[Na+] (centres unmarked) [Example 7, Sodium [4-(4-pyridyl)-7-oxo-1,6-diazabicyclo[3.2.1]oct-3-en-6-yl]sulfate] | 12 nM | 30 nM | 13 nM | 150 nM | 250 nM | 2300 nM | 95 nM | 4.9 nM | > 32 µg/mL | > 32 µg/mL | 8 µg/mL | > 32 µg/mL | > 32 µg/mL | > 32 µg/mL | > 32 µg/mL | 1700 nM | 2200 nM
O=C1N2CC=C(c3cncnc3)C(C2)N1OS(=O)(=O)[O-].[Na+] (centres unmarked) [Example 10, Sodium [4-(pyrimidin-5-yl)-7-oxo-1,6-diazabicyclo[3.2.1]oct-3-en-6-yl] sulfate] | 7.7 nM | 21 nM | 8.3 nM | 130 nM | 200 nM | 1300 nM | 140 nM | 6.1 nM | 16 µg/mL | 16 µg/mL | > 32 µg/mL | > 32 µg/mL | > 32 µg/mL | > 32 µg/mL | > 32 µg/mL | 1100 nM | 2600 nM
O=C1N2CC(c3nc4ccccc4s3)=CC(C2)N1OS(=O)(=O)[O-].[Na+] (centres unmarked) [Example 27, Sodium [3-(1,3-benzothiazol-2-yl)-7-oxo-1,6-diazabicyclo[3.2.1]oct-3-en-6-yl] sulfate] | 0.21 nM | 2.1 nM | 1.4 nM | 2.7 nM | 560 nM | 150 nM | 99 nM | 6.4 nM | > 32 µg/mL | > 32 µg/mL | > 32 µg/mL | > 32 µg/mL | > 32 µg/mL | > 32 µg/mL | > 32 µg/mL | 9.1 nM | 68 nM
O=C1N2CC(c3cnoc3)=CC(C2)N1OS(=O)(=O)[O-].[Na+] (centres unmarked) [Example 26, sodium [3-(isoxazol-4-yl)-7-oxo-1,6-diazabicyclo[3.2.1]oct-3-en-6-yl] sulfate] | 4.8 nM | 13 nM | 5.7 nM | 4.2 nM | 370 nM | 140 nM | 210 nM | 6.6 nM | 8 µg/mL | 2 µg/mL |  | 4 µg/mL | 8 µg/mL | 8 µg/mL | > 32 µg/mL | 51 nM | 74 nM
O=C1N2CC(n3ccnc3)=CC(C2)N1OS(=O)(=O)[O-].[Na+] (centres unmarked) [Example 34, Sodium [3-imidazol-1-yl-7-oxo-1,6-diazabicyclo[3.2.1]oct-3-en-6-yl]sulfate] | 7.2 nM | 21 nM | 2.7 nM | 24 nM | 410 nM | 650 nM | 220 nM | 220 nM | 8 µg/mL | 8 µg/mL |  | 16 µg/mL | 32 µg/mL | 16 µg/mL | > 32 µg/mL | 59 nM | 500 nM
Cn1cc(C2=CCN3CC2N(OS(=O)(=O)[O-])C3=O)ncc1=O.[Na+] (centres unmarked) [Example 14, Sodium [4-(4-methyl-5-oxo-pyrazin-2-yl)-7-oxo-1,6-diazabicyclo[3.2.1]oct-3-en-6-yl] sulfate] | 1.6 nM | 2.9 nM | 2.7 nM | 52 nM | 730 nM | 920 nM | 33 nM | 1.4 nM | 8 µg/mL | 8 µg/mL |  | > 32 µg/mL | > 32 µg/mL | > 32 µg/mL | > 32 µg/mL | 890 nM | 1900 nM
O=C1N2CC(c3cnco3)=CC(C2)N1OS(=O)(=O)[O-].[Na+] (centres unmarked) [Example 35, Sodium [3-(oxazol-5-yl)-7-oxo-1,6-diazabicyclo[3.2.1]oct-3-en-6-yl]sulfate] | 2.3 nM | 8.4 nM | 0.81 nM | 8.2 nM | 1400 nM | 300 nM | 74 nM | 2.5 nM | 8 µg/mL | 2 µg/mL |  | 4 µg/mL | 8 µg/mL | 4 µg/mL | > 32 µg/mL | 51 nM | 210 nM
O=C1N2CC=C(c3cccnc3)C(C2)N1OS(=O)(=O)[O-].[Na+] (centres unmarked) [Example 9, Sodium [4-(3-pyridyl)-7-oxo-1,6-diazabicyclo[3.2.1]oct-3-en-6-yl]sulfate] | 3.8 nM | 11 nM | 4.8 nM | 68 nM | 130 nM | 730 nM | 52 nM | 1.4 nM | > 32 µg/mL | 16 µg/mL |  | > 32 µg/mL | > 32 µg/mL | > 32 µg/mL | > 32 µg/mL | 770 nM | 810 nM
Cn1ccc(C2=CCN3CC2N(OS(=O)(=O)[O-])C3=O)cc1=O.[Na+] (centres unmarked) [Example 13, Sodium [4-(1-methyl-2-oxo-4-pyridyl)-7-oxo-1,6-diazabicyclo[3.2.1]oct-3-en-6-yl] sulfate] | 6.1 nM | 8.8 nM | 6 nM | 63 nM | 820 nM | 730 nM | 230 nM | 2.3 nM | 16 µg/mL | 8 µg/mL |  | > 32 µg/mL | > 32 µg/mL | > 32 µg/mL | > 32 µg/mL | 2800 nM | 3200 nM
O=C1N2CC(c3ncon3)=CC(C2)N1OS(=O)(=O)[O-].[Na+] (centres unmarked) [Example 36, Sodium [3-(1,2,4-oxadiazol-3-yl)-7-oxo-1,6-diazabicyclo[3.2.1]oct-3-en-6-yl] sulfate] | 2.3 nM | 16 nM | 1.1 nM | 39 nM | 2400 nM | 920 nM | 660 nM | 2.1 nM | 8 µg/mL | 1 µg/mL |  | 4 µg/mL | 16 µg/mL | 8 µg/mL | > 32 µg/mL | 43 nM | 160 nM
O=C1N2CC=C(c3ccns3)C(C2)N1OS(=O)(=O)[O-].[Na+] (centres unmarked) [Example 30, Sodium [4-(isothiazol-5-yl)-7-oxo-1,6-diazabicyclo[3.2.1]oct-3-en-6-yl] sulfate] | 5.2 nM | 15 nM | 1.8 nM | 63 nM | 150 nM | 720 nM | 23 nM | 2.5 nM | 8 µg/mL | 4 µg/mL |  | > 32 µg/mL | > 32 µg/mL | > 32 µg/mL | > 32 µg/mL | 200 nM | 780 nM

— patent US10183943B2, “Heterocyclic compounds and their use in preventing or treating bacterial infections” (MUTABILIS, priority 2015, dated 2019)
